Experimental data: US10495796B2, “Near-infrared cut filter” (AGC INC., priority 2012, dated 2019)

What was measured:
Type in all cases: physicochemical
[1] = Absorption characteristics: transmission spectrum of near-infrared absorbing layer of NIR filter (UV-visible spectrophotometer)
Method in brief: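 Transmission spectra of the near-infrared absorbing layer on glass were recorded with a UV-visible spectrophotometer at normal incidence, with the glass plate's absorption and interface reflections subtracted. From the 650–800 nm region, λa (shortest wavelength at 1% transmittance) and λc (70% transmittance, shorter side) were taken. The Is value is nd(B)×(λa−λc), with λb−λa fixed at 30 nm.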

[2] = Transmittance and 20% shift (incident angle dependency) of NIR filter having selected wavelength shielding layer; settings: NIR filter 110: dye 3.0 parts by mass per 100 of polyester resin B-OKP2 (nd(B) 1.64), with selected wavelength shielding layer and antireflection layer
Description: In the present filter, the visible light transmittance is secured sufficiently by satisfying the condition (iv-1), and moreover, angle dependency which the dielectric multilayer film has is solved, and the light shielding property of the near-infrared region is secured sufficiently in a wide wavelength region without being affected by the influence of the incident angle by satisfying the conditions (iv-2) and (iv-3). • Here, in the condition (iv-3), the angle dependency is evaluated by using a shift of wavelength in 20% transmittance when the incident angle is 0 degree and when it is 30 degrees as an index.
Transmittance of the NIR filter of Example 110 was measured as transmittance of light incident from a direction orthogonal to a main surface, that is, light with an incident angle of 0 degree and transmittance of light incident from a direction making an angle of 30 degrees relative to a line orthogonal to the main surface, that is, light with an incident angle of 30 degrees by using an ultraviolet visible light spectrophotometer (U-4100 type spectrophotometer made by Hitachi High-Technologies Corporation), so as to obtain a transmission spectrum. A 20% shift (30 degrees) is a difference between a value of a wavelength with transmittance of 20% of light with an incident angle of 0 degree (indicated as “λ20-0”) and a value of a wavelength with transmittance of 20% of light with an incident angle of 30 degrees (indicated as “λ20-30”).
Moreover, a transmission spectrum of light with an incident angle of 40 degrees was obtained similarly. Further, the difference between a value of a wavelength with transmittance of 20% of light with an incident angle of 0 degree (λ20-0) and a value of a wavelength with transmittance of 20% of light with an incident angle of 40 degrees (indicated as “λ20-40”) was obtained as a 20% shift (40 degrees).
The near-infrared absorbing layer was formed on a glass plate similarly to Example 7 except that a glass plate on which the selected wavelength shielding layer is formed was used on a face opposite to an application face of the coating liquid for forming the near-infrared absorbing layer. Moreover, the antireflection layer was formed on the near-infrared absorbing layer, so as to obtain the NIR filter 110. The film thickness in the selected wavelength shielding layer in its entirety was approximately 8.9 μm, and the film thickness in the antireflection layer in its entirety was approximately 0.34 μm. The transmittance of the obtained NIR filter 110 was measured, and 20% shifts (30 degrees) and (40 degrees) were obtained. Results thereof are presented in Table 9 together with structures of the near-infrared absorbing layer. FIG. 6 illustrates transmission spectra of light with incident angles of 0 degree, 30 degrees and 40 degrees of the wavelength region of 660 nm to 690 nm in the NIR filter 110 by a solid line, a dotted line and a dashed line, respectively.

[3] = Solubility of dye to organic solvent; settings: 50° C., mass % of the dye to the mass of the entire solution
Description: Regarding the dyes (A11-1) to (A11-10) and (A11-20) to (A11-27) obtained above, solubility to organic solvent was evaluated as follows.
Three kinds of solvents, cyclohexanone, methyl isobutyl ketone (MIBK), toluene, were used as the organic solvent in the solubility test. Note that in Table 3, % is mass % of the dye to the mass of the entire solution. Further, the temperature of each organic solvent in the solubility test was 50° C.

[4] = transparent resin acrylic resin BR50, nd(B) 1.56, film thickness 2.3 μm
[5] = transparent resin polycarbonate EP5000, nd(B) 1.63, film thickness 2.4 μm
[6] = transparent resin polycarbonate SP3810, nd(B) 1.63, film thickness 1.0 μm
[7] = transparent resin polycarbonate SP3810, nd(B) 1.63, film thickness 2.8 μm

In the case of `CCCCC(CC)C(=O)Nc1cc2c(cc1C1=C([O-])C(=c3cc4c(cc3NC(=O)C(CC)CCCC)=[N+](C(C)C)C(C)C4(C)C)C1=O)C(C)(C)C(C)N2C(C)C` (stereo not shown) [Example A11-7], the “430 nm to 600 nm Average transmittance” value [1, 4] is reported as 96.1%, the “Is value (nd(B)×(λa-λc))” value [1, 4] is reported as 101.5 and the λa [1, 4] is reported as 695 nm. The “λa − λc” value [1, 4] was 65 nm, the λb [1, 4] was 715 nm and the “λb − λa” value [1, 4] was 30 nm. The λc [1, 4] was 630 nm, the λmax [1, 4] was 712 nm and the “430 nm to 600 nm Average transmittance” value [1, 5] was 96.9%. For the same compound, the “Is value (nd(B)×(λa-λc))” value [1, 5] was 104.5, the λa [1, 5] was 700 nm and the “λa − λc” value [1, 5] was 64 nm. The λb [1, 5] was 730 nm, the “λb − λa” value [1, 5] was 30 nm and the λc [1, 5] was 636 nm. For the same compound, the λmax [1, 5] was 715 nm, the “430 nm to 600 nm Average transmittance” value [1, 6] was 95.8% and the “Is value (nd(B)×(λa-λc))” value [1, 6] was 106.3. The λa [1, 6] was 700 nm, the “λa − λc” value [1, 6] was 65 nm and the λb [1, 6] was 730 nm. The “λb − λa” value [1, 6] was 30 nm, the λc [1, 6] was 635 nm and the λmax [1, 6] was 712 nm. For the same compound, the “430 nm to 600 nm Average transmittance” value [1, 7] was 96.5%, the “Is value (nd(B)×(λa-λc))” value [1, 7] was 104.6 and the λa [1, 7] was 700 nm. The “λa − λc” value [1, 7] was 64 nm, the λb [1, 7] was 730 nm and the “λb − λa” value [1, 7] was 30 nm. The λc [1, 7] was 636 nm, the λmax [1, 7] was 716 nm and the “20% shift 30 degrees (λ20-0-λ20-30)” value [2] was 1 nm. The “20% shift 40 degrees (λ20-0-λ20-40)” value [2] was 3 nm, the “20%-transmittance wavelength of 0-degree incident angle (λ20-0)” value [2] was 668 nm and the “20%-transmittance wavelength of 30-degree incident angle (λ20-30)” value [2] was 667 nm. The “20%-transmittance wavelength of 40-degree incident angle (λ20-40)” value [2] was 665 nm, the “Transmittance 420 nm to 620 nm (average)” value [2] was 88.6% and the “Transmittance 700 nm to 1100 nm (average)” value [2] was 0.03%. For the same compound, the “Transmittance 710 nm to 1100 nm (maximum)” value [2] was 0.28%, the “Solubility to organic solvent: Cyclohexanone” value ([3]; cyclohexanone) was 10%< mass % and the “Solubility to organic solvent: MIBK” value ([3]; methyl isobutyl ketone) was 3.00% mass %. The “Solubility to organic solvent: Toluene” value ([3]; toluene) was 10%< mass %.
